According to publication PMC11392934 (Nature Communications, 2024):

Experiments:
LacY = molecular target: T1, LacY (Escherichia coli, UniProt P02920); assay: inhibition of lactose-dependent NADPH production in MleP-LacY vesicles; type: biochemical; conditions: 100 µM D-lactose, pH 7, 30 °C; competitive; coupled read-out
T1 sequence (P02920 1-417): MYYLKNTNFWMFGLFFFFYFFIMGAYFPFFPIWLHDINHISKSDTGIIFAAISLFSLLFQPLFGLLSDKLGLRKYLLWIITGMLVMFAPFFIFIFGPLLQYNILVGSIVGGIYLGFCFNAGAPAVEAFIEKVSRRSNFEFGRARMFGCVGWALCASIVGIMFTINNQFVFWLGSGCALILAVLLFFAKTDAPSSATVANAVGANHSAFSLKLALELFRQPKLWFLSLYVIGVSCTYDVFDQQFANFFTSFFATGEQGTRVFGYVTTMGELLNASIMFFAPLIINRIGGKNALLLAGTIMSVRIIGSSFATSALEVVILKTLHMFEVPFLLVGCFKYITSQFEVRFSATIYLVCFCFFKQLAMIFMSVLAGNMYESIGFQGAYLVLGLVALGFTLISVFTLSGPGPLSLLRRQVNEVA

MleS = molecular target: T2, MleS (Lactococcus lactis, UniProt Q48662); assay: initial H+ consumption rate by pH microelectrode; type: biochemical; conditions: product inhibition; 5 mM L-malate, pH 7, 30 °C
T2 sequence (Q48662 1-540): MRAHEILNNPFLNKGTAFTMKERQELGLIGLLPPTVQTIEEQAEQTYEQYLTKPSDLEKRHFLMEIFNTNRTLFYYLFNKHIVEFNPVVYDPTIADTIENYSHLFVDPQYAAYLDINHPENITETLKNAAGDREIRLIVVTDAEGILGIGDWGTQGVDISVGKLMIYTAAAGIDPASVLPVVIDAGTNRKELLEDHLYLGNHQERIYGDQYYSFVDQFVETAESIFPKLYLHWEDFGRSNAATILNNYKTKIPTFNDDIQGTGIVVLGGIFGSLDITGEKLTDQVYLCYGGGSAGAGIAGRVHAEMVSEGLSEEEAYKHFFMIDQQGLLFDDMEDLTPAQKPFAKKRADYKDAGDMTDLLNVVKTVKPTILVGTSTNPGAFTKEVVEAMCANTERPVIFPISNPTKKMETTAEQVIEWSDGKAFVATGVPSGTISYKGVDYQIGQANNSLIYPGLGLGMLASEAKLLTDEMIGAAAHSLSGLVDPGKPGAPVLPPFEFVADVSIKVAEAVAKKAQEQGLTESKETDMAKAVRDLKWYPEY

Row | Compound | effect at 20 mM (LacY) | % reduction of initial rate at 25 mM (MleS)
1 | CS[C@@H]1O[C@H](CO)[C@H](O)[C@H](O)[C@H]1O [methyl-β-D-thiogalactoside] | methyl-β-D-thiogalactoside (TMG) and thiodigalactoside (TDG) | –
2 | C[C@H](O)C(=O)O [L-lactate] | – | 50%
3 | OC[C@H]1O[C@@H](S[C@@H]2O[C@H](CO)[C@H](O)[C@H](O)[C@H]2O)[C@H](O)[C@@H](O)[C@H]1O [thiodigalactoside] | NADPH fluorescence is reduced in the presence non-hydrolysable substrates | –
